Measured values published in paper PMC5055185, “Dual pharmacological inhibition of glutathione and thioredoxin systems synergizes to kill colorectal carcinoma stem cells” (Cancer Medicine, 2016).
“And” between values parts separate entries of the source, which are not always exact repeats. Equal values may be shown once.

How the values were obtained:
Assay type in all cases: cell-based, human
[1] = test system: phosphorylated NRF2 in embryonic fibroblasts (OUMS and TIG3); test: NRF2 phosphorylation by western blotting, embryonic fibroblasts; settings: 24 hours, Auranofin 2µM, Piperlongumine 5µM
[2] = test system: OUMS‐36 embryonic fibroblasts; test: cell survival (live cell count by trypan blue exclusion, 5 days drug exposure), OUMS-36; settings: for IC50: OUMS36, cellular survival, 5 days
Method: (§1) Modified procedures of CTOS culture 16 were described elsewhere 10. […] The culture medium was serum‐free advanced DMEM/F‐12 (GIBCO, Waltham, MA) supplemented with FGF‐2 (10 ng/mL, ReproCell, Yokohama, Japan), penicillin ([…], Wako, Osaka, Japan), streptomycin (0.1 mg/mL,Wako), gentamicin (50 μg/mL, Wako), and fungizone (0.25 μg/mL, GIBCO). DLD‐1 and HCT116 CRC cell lines were purchased from JCRB Cell Bank (Osaka, Japan) and RIKEN BioResource Center (Ibaraki, Japan), respectively. In order to estimate pharmacological side effects against normal tissues, human diploid fibroblasts were purchased (JCRB Cell Bank) as model cells. The origins of the fibroblasts were as follows: OUMS‐36 (embryo), TIG‐3 (fetal lung), TIG‐111 (dermal fibroblasts [DFs] from individual), TIG‐119 (DFs from individual), and TIG‐102 (DFs from individual). Adult DFs were purchased from Kurabo (Osaka, Japan). CRC cell lines and fibroblasts were maintained under supplier‐recommended culture conditions. Since the culture conditions are different between fibroblasts and CTOSs, we need to be cautious about the interpretation of data (i.e., lateral comparison between them). […] Colorectal CTOSs display augmented survival through maintaining epithelial structure with E‐cadherin 16. On the other hand, the establishment of conventional cell lines (adherent culture) are much less efficient because constant cell division and autonomous survival are required for the procedure. When we choose CTOSs instead of cancer cell lines, we lose the equivalent condition (adherent culture) as a trade‐off.
(§2) Each drug's half‐maximal inhibitory concentration (IC50) was calculated based on live cell number ratios (drug treated/untreated × 100%) obtained from serial dilution of drug concentration. The length of drug exposure was 5 days. Each number of live cells was counted automatically by trypan blue exclusion (LUNA automated cell counter, Logos Biosystems, Anyang, South Korea). Cancer spheroids were dispersed with serial treatments (20 min each) of TrypLE™ and Accumax™. Thus, IC50 was determined based on cellular survival, but not on proliferation. We chose the survival index instead of the speed of growth because CTOSs in vitro show very slow proliferation (quiescence), which is one of the hallmarks of CSCs 2. The IC50 values of fibroblasts were accordingly determined based on cellular survival index during quiescence (by contact inhibition). […] To quantify the synergism of two distinct drugs, Combination Index (CI) was calculated 21. A CI value of about 1 (0.90–1.10) was defined as nearly additive and CI values more than (>1.10) and less than (<0.90) were defined as antagonism and synergism, respectively. IC50 and CI were determined using CompuSyn software (ComboSyn, Paramus, NK).

[3] = test system: CTOS88 colorectal cancer tissue‐originated spheroids; test: cell survival (trypan blue exclusion, 5 days), CTOS88; settings: for Ratio of survived cells (Drugs treated/Untreated), #3: passage point #3; for Ratio of survived cells (Drugs treated/Untreated), #4: passage point #4; for Ratio of survived cells (Drugs treated/Untreated), #5: passage point #5; for Ratio of survived cells (Drugs treated/Untreated), #1: passage point #1; for Ratio of survived cells (Drugs treated/Untreated), #6: passage point #6
Text: (§3) All experimental procedures were approved by the animal facility at Dokkyo Medical University (ID: 951) and were described elsewhere 10. The existence of CSCs has been experimentally proven through serial xenotransplantation and tumorigenesis 2, 14. […] These subcutaneous tumors were again subjected to enzymatic dissociation and some of the tumor cells were subcutaneously transplanted into other mice. […] Seven cases (CTOS:40, 42, 68, 71, 76, 86, 88) were used for in vitro experiments.
as §1
(§4) Each drug's half‐maximal inhibitory concentration (IC50) was calculated based on live cell number ratios (drug treated/untreated × 100%) obtained from serial dilution of drug concentration. The length of drug exposure was 5 days. Each number of live cells was counted automatically by trypan blue exclusion (LUNA automated cell counter, Logos Biosystems, Anyang, South Korea). Cancer spheroids were dispersed with serial treatments (20 min each) of TrypLE™ and Accumax™. Thus, IC50 was determined based on cellular survival, but not on proliferation.

[4] = test system: DF adult dermal fibroblasts; test: cell survival (trypan blue exclusion, 5 days), DF; settings: for IC50: cellular survival, 5 days
Method: as §1, §2

[5] = test system: phosphorylated NRF2 in colorectal CTOSs; test: NRF2 phosphorylation by western blotting, colorectal CTOSs; settings: 24 hours, Auranofin 2µM, Piperlongumine 5µM, CB83 12.5 µM
Method: From colorectal CTOS, whole‐cell proteins were dissolved with solubilizer (7 mol/L urea, 2 mol/L thiourea, 2% Triton X‐100, Wako) and the entangled genomic DNA was sheared by sonication for 30 min. Procedures for immunoblotting have been described elsewhere 6, 10. Primary antibodies used in this study are as follows: phosphorylated NRF2 from Abcam (#76026) and Histone H3 from Cell Signaling Technologies (#4499, Danvers, MA). Phosphorylation of NRF2 is well correlated with nuclear accumulation in HCCs 6. Representative data are shown in the figures; all experiments were reproduced at least twice with different passage points.
Colorectal CTOSs were incubated with each inhibitor for 24 hours. Whole cell proteins were extracted and each well was loaded with same amount of proteins (40 µg for NRF2 and 10 µg for H3). Phosphorylation of NRF2 was measured by western blotting. Blotting for histone H3 serves as loading control.

[6] = test system: CTOS71 colorectal cancer tissue‐originated spheroids; test: cell survival (trypan blue exclusion, 5 days), CTOS71; settings: for IC50: CTOS71, cellular survival, 5 days; for Ratio of survived cells (Drugs treated/Untreated), Average / Ratio of survived cells (Drugs treated/Untreated), single passage points #: CTOS#71
Text: as §3, §1, §4

[7] = test system: TIG‐102 dermal fibroblasts; test: cell survival (trypan blue exclusion, 5 days), TIG-102; settings: for IC50: TIG102, cellular survival, 5 days; for Ratio of survived cells (Drugs treated/Untreated), Average / Ratio of survived cells (Drugs treated/Untreated), single passage points #: TIG-102
Method: as §1, §2

[8] = calculated from average % survival

## CC[PH](CC)(CC)[Au][S][C@@H]1O[C@H](COC(C)=O)[C@@H](OC(C)=O)[C@H](OC(C)=O)[C@H]1OC(C)=O [Aura, Auranofin]
[1]
  NRF2 phosphorylation: less efficiently phosphorylated
[2]
  IC50: 1.79 µM
[2]; OUMS-36, Aura 1 microM
  Ratio of survived cells (Drugs treated/Untreated), Average: 87.8571%
  Ratio of survived cells (Drugs treated/Untreated), single passage points #: 123% and 124% and 66% and 91% and 65% and 77% and 69%
[2]; OUMS-36, Aura 2 microM
  Ratio of survived cells (Drugs treated/Untreated), Average: 39.8571%
[2]; OUMS-36, Aura 4 microM
  Ratio of survived cells (Drugs treated/Untreated), Average: 6%
[3]; Aura 1 microM
  Ratio of survived cells (Drugs treated/Untreated), Average: 78.3333%
  Ratio of survived cells (Drugs treated/Untreated), #3: 91%
  Ratio of survived cells (Drugs treated/Untreated), #4: 76%
  Ratio of survived cells (Drugs treated/Untreated), #5: 68%
[3]; Aura 2 microM
  Ratio of survived cells (Drugs treated/Untreated), Average: 67%
  Ratio of survived cells (Drugs treated/Untreated), #3: 72%
  Ratio of survived cells (Drugs treated/Untreated), #4: 61%
  Ratio of survived cells (Drugs treated/Untreated), #5: 68%
[3]; Aura 4 microM
  Ratio of survived cells (Drugs treated/Untreated), Average: 24.3333%
  Ratio of survived cells (Drugs treated/Untreated), #1: 33%
  Ratio of survived cells (Drugs treated/Untreated), #3: 23%
  Ratio of survived cells (Drugs treated/Untreated), #5: 17%
[3]; [8]
  IC50: 2.34 µM
[3]; cellular survival, 5 days
  IC50: 2.34 µM
[4]; Aura 1 microM
  Ratio of survived cells (Drugs treated/Untreated), Average: 88.25%
[4]; Aura 2 microM
  Ratio of survived cells (Drugs treated/Untreated), Average: 33%
  Ratio of survived cells (Drugs treated/Untreated), single passage points #: 38% and 32% and 36% and 26%
[4]; Aura 4 microM
  Ratio of survived cells (Drugs treated/Untreated), Average: 0%
  Ratio of survived cells (Drugs treated/Untreated), single passage points #: 0%
[4]
  IC50: 1.59 µM
[5]
  NRF2 phosphorylation: efficiently phosphorylated
[6]
  IC50: 2.21 µM
[6]; Aura 1 microM
  Ratio of survived cells (Drugs treated/Untreated), Average: 70.2%
  Ratio of survived cells (Drugs treated/Untreated), single passage points #: 81% and 77% and 62% and 56% and 75%
[6]; Aura 2 microM
  Ratio of survived cells (Drugs treated/Untreated), Average: 55.3333%
[6]; Aura 4 microM
  Ratio of survived cells (Drugs treated/Untreated), Average: 33.1429%
[7]
  IC50: 1.09 µM
[7]; Aura 1 microM
  Ratio of survived cells (Drugs treated/Untreated), Average: 48.5%
  Ratio of survived cells (Drugs treated/Untreated), single passage points #: 44% and 53%
[7]; Aura 2 microM
  Ratio of survived cells (Drugs treated/Untreated), Average: 21%
[7]; Aura 4 microM
  Ratio of survived cells (Drugs treated/Untreated), Average: 0%
  Ratio of survived cells (Drugs treated/Untreated), single passage points #: 0%

## COc1cc(/C=C/C(=O)N2CCC=CC2=O)cc(OC)c1OC [Pipe, Piperlongumine]
[1]
  NRF2 phosphorylation: not
[1]; listed as Piperlongmine
  NRF2 phosphorylation: almost negligible
[2]
  IC50: 9.36 µM
[2]; OUMS-36, Pipe 2.5 microM
  Ratio of survived cells (Drugs treated/Untreated), Average: 107.667%
[2]; OUMS-36, Pipe 5 microM
  Ratio of survived cells (Drugs treated/Untreated), Average: 84.6667%
[2]; OUMS-36, Pipe 10 microM
  Ratio of survived cells (Drugs treated/Untreated), Average: 49.1667%
[3]; Pipe 2.5 microM
  Ratio of survived cells (Drugs treated/Untreated), Average: 75.3333%
  Ratio of survived cells (Drugs treated/Untreated), #3: 56%
  Ratio of survived cells (Drugs treated/Untreated), #4: 86%
  Ratio of survived cells (Drugs treated/Untreated), #5: 84%
[3]; Pipe 5 microM
  Ratio of survived cells (Drugs treated/Untreated), Average: 44.8%
  Ratio of survived cells (Drugs treated/Untreated), #1: 44%
  Ratio of survived cells (Drugs treated/Untreated), #3: 33%
  Ratio of survived cells (Drugs treated/Untreated), #4: 57%
  Ratio of survived cells (Drugs treated/Untreated), #5: 29%
  Ratio of survived cells (Drugs treated/Untreated), #6: 61%
[3]; Pipe 10 microM
  Ratio of survived cells (Drugs treated/Untreated), Average: 12.2%
  Ratio of survived cells (Drugs treated/Untreated), #1: 19%
  Ratio of survived cells (Drugs treated/Untreated), #3: 4%
  Ratio of survived cells (Drugs treated/Untreated), #4: 16%
  Ratio of survived cells (Drugs treated/Untreated), #5: 5%
  Ratio of survived cells (Drugs treated/Untreated), #6: 17%
[3]; [8]
  IC50: 4.25 µM
[3]; cellular survival, 5 days
  IC50: 4.25 µM
[4]; Pipe 2.5 microM
  Ratio of survived cells (Drugs treated/Untreated), Average: 94.8333%
[4]; Pipe 5 microM
  Ratio of survived cells (Drugs treated/Untreated), Average: 80.3333%
  Ratio of survived cells (Drugs treated/Untreated), single passage points #: 81% and 80% and 83% and 109% and 67% and 62%
[4]; Pipe 10 microM
  Ratio of survived cells (Drugs treated/Untreated), Average: 12.5%
[4]
  IC50: 6.3 µM
[5]
  NRF2 phosphorylation: efficiently phosphorylated
[6]
  IC50: 6.01 µM
[6]; Pipe 2.5 microM
  Ratio of survived cells (Drugs treated/Untreated), Average: 80.8%
  Ratio of survived cells (Drugs treated/Untreated), single passage points #: 96% and 59% and 102% and 88%
[6]; Pipe 5 microM
  Ratio of survived cells (Drugs treated/Untreated), Average: 60.8%
[6]; Pipe 10 microM
  Ratio of survived cells (Drugs treated/Untreated), Average: 27.8%
  Ratio of survived cells (Drugs treated/Untreated), single passage points #: 21% and 20% and 35% and 27% and 36%
[7]
  IC50: 7.89 µM
[7]; Pipe 2.5 microM
  Ratio of survived cells (Drugs treated/Untreated), Average: 105.667%
  Ratio of survived cells (Drugs treated/Untreated), single passage points #: 83% and 86% and 148%
[7]; Pipe 5 microM
  Ratio of survived cells (Drugs treated/Untreated), Average: 86.3333%
  Ratio of survived cells (Drugs treated/Untreated), single passage points #: 54% and 100% and 105%
[7]; Pipe 10 microM
  Ratio of survived cells (Drugs treated/Untreated), Average: 27.6667%
